Measurements reported in patent US20210252009A1, “COMPOSITION COMPRISING FLT3 INHIBITOR AS EFFECTIVE INGREDIENT FOR INHIBITING DRUG RESISTANCE IN CHRONIC MYELOGENOUS LEUKEMIA” (INDUSTRY-ACADEMIC COOPERATION FOUNDATION, YONSEI UNIVERSITY, priority 2018, published 2021).

Tests used:
[1] = test system: FLT3-transformed K562 cells; assay: MTT assay, inhibitors against FLT3 subfactors co-treated with imatinib; type: cell-based; conditions: for Apoptotic effect and drug tolerance (MTT) when co-treated with imatinib: imatinib 1 μM plus inhibitor at three concentrations, 4 days, FIGS. 9a-9e; for Apoptotic effect and drug tolerance when JAK, STAT3, TAZ, TEAD and CD36 are inhibited: summary statement in the description, treatment conditions not given
Procedure: AZD1480 (Selleckem, Cat. No. S2162) was used as a JAK inhibitor, C188-9 (Selleckem, Cat. No. S8605) was used as a STAT3 inhibitor, verteporfin (Selleckem, Cat. No. S1786) was used as a TAZ inhibitor, flufenamic acid (Selleckem, Cat. No. S4268) was used as a TEAD inhibitor, and sulfo-N-succinimidyl oleate (Cayman, Cat. No. 11211) was used as a CD36 inhibitor. […] After treating with each inhibitor for 4 days, MTT assay was conducted in the same manner as in Test Example 5 and absorbance was measured at 540 nm using a multiplate reader (FIG. 9).

[2] = test system: wild-type (WT) K562 cells; assay: Drug tolerance test: surviving cells counted after 17 days of anticancer drug treatment; type: cell-based; conditions: 1 μM drug
[3] = test system: FLT3-transformed K562 cells having resistance to three drugs (imatinib, dasatinib and nilotinib); conditions: single agent; FIGS. 4-7
[4] = test system: FLT3-transformed K562 cells; assay: Drug tolerance test: surviving cells counted after 17 days of anticancer drug treatment; type: cell-based; conditions: K562 FLT3, 1 μM drug
Procedure: Drug tolerance was tested using FLT3-transformed K562 cells (ATCC, CCL-243) mimicking the blast crisis of chronic myelogenous leukemia.
After administering three anticancer drugs against chronic myelogenous leukemia for 17 days to the FLT3-transformed K562 cells, the surviving cells were counted (Table 1).

[5] = test system: FLT3-transformed K562 cells having resistance to imatinib; assay: MTT assay, FLT3 inhibitors co-administered with imatinib; type: cell-based; conditions: 1 μM imatinib alone, 5 days
Procedure: The cells were cultured using DMEM (Hyclone) containing 10% FBS (Gibco). […] The concentration of the FLT3 inhibitor was as follows. […] 5 days later, after adding 100 μL of an MTT labeling reagent included in a cell proliferation kit (Roche) to each well for 2 hours and then treating with […] of a solubilization solution for 24 hours, absorbance was measured at a wavelength of 540 nm using a multiplate reader (FIGS. 8a-8c).

Row | Compound | Apoptotic effect and drug tolerance (MTT) when co-treated with imatinib [1] | Apoptotic effect and drug tolerance when JAK, STAT3, TAZ, TEAD and CD36 are inhibited [1] | Cell number ([2]; Day 0) | Cell number ([2]; Day 5) | Cell number ([2]; Day 9) | Cell number ([2]; Day 11) | Cell number ([2]; Day 13) | Cell number ([2]; Day 15) | Cell number ([2]; Day 17) | Killing of resistant cells, treated only with the one agent [3] | Cell number ([4]; Day 0) | Cell number ([4]; Day 5) | Cell number ([4]; Day 9) | Cell number ([4]; Day 11) | Cell number ([4]; Day 13) | Cell number ([4]; Day 15) | Cell number ([4]; Day 17) | Killing of FLT3-overexpressed K562 cells (MTT), imatinib only [5]
1 | O=C(O)c1ccccc1Nc1cccc(C(F)(F)F)c1 [flufenamic acid] | remarkably enhanced apoptotic effect and inhibited drug tolerance | apoptotic effect is enhanced remarkably and drug tolerance is inhibited | – | – | – | – | – | – | – | – | – | – | – | – | – | – | – | –
2 | Cc1cc(Nc2nc(N[C@@H](C)c3ncc(F)cn3)ncc2Cl)n[nH]1 [AZD1480] | remarkably enhanced apoptotic effect and inhibited drug tolerance | apoptotic effect is enhanced remarkably and drug tolerance is inhibited | – | – | – | – | – | – | – | – | – | – | – | – | – | – | – | –
3 | Cc1cn(-c2cc(NC(=O)c3ccc(C)c(Nc4nccc(-c5cccnc5)n4)c3)cc(C(F)(F)F)c2)cn1 [nilotinib] | – | – | 1 × 10^5 | 0.9675 × 10^5 | 0.23 × 10^5 | 0.76 × 10^5 | 0.09 × 10^5 | 0 × 10^5 | 0 × 10^5 | hardly killed | 1 × 10^5 | 2.0975 × 10^5 | 1.38 × 10^5 | 2.64 × 10^5 | 2.84 × 10^5 | 4.52 × 10^5 | 17.1 × 10^5 | –
4 | Cc1nc(Nc2ncc(C(=O)Nc3c(C)cccc3Cl)s2)cc(N2CCN(CCO)CC2)n1 [dasatinib] | – | – | 1 × 10^5 | 0.8075 × 10^5 | 0.35 × 10^5 | 0.47 × 10^5 | 0 × 10^5 | 0 × 10^5 | 0 × 10^5 | – | – | 1.57 × 10^5 | 2.87 × 10^5 | 2.23 × 10^5 | 2.26 × 10^5 | 1.76 × 10^5 | 9.33 × 10^5 | –
5 | verteporfin | remarkably enhanced apoptotic effect and inhibited drug tolerance | apoptotic effect is enhanced remarkably and drug tolerance is inhibited | – | – | – | – | – | – | – | – | – | – | – | – | – | – | – | –
6 | CCCCCCCC/C=C\CCCCCCCC(=O)ON1C(=O)CC(S(=O)(=O)O)C1=O (centres unmarked) [sulfo-N-succinimidyl oleate] | remarkably enhanced apoptotic effect and inhibited drug tolerance | apoptotic effect is enhanced remarkably and drug tolerance is inhibited | – | – | – | – | – | – | – | – | – | – | – | – | – | – | – | –
7 | COc1ccc(S(=O)(=O)Nc2cc(-c3c(O)ccc4ccccc34)c(O)c3ccccc23)cc1 [C188-9] | remarkably enhanced apoptotic effect and inhibited drug tolerance | apoptotic effect is enhanced remarkably and drug tolerance is inhibited | – | – | – | – | – | – | – | – | – | – | – | – | – | – | – | –
8 | Cc1ccc(NC(=O)c2ccc(CN3CCN(C)CC3)cc2)cc1Nc1nccc(-c2cccnc2)n1 [imatinib] | – | – | 1 × 10^5 | 0.485 × 10^5 | 0.058 × 10^5 | 0.52 × 10^5 | 0.175 × 10^5 | 0 × 10^5 | 0 × 10^5 | hardly killed | 1 × 10^5 | 1.013 × 10^5 | 1.905 × 10^5 | 1.82 × 10^5 | – | 3.17 × 10^5 | 14.3 × 10^5 | could not be killed
